pEC50: −log10 of the molar value.
Test system: HCV genotype 1a replicon
Experiment: HCV genotype 1a replicon assay (NS3 protease activity readout)
Type: cell-based, hepatitis C virus
Details: HCV genotype 1a replicon
Procedure, shortened: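 EC50 values came from a 4-parameter robust fit of fluorescence (ex 340, em 509 nm) produced by NS3-specific protease in lysates, assayed with 15 μM FRET substrate for 20 min at 37° C, after 48 or 72 hours of compound exposure (0.5% DMSO) of Huh7.5-derived APC89 genotype 1a replicon cells.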

SMILES	Genotype 1a
COC(=O)N[C@H](C(=O)N1C[C@@H](C)C[C@H]1c1nc(-c2ccc(-c3cc(Cl)c(NC(=O)c4ccc(N5CCN(C(=O)[C@H]6CC6(C)C)C[C@H]5C)nc4)cc3C(F)(F)F)cc2)c[nH]1)C(C)C [Example 1-31]	D (D represents pEC50>10 (EC50<0.1 nM))
COC(=O)N[C@H](C(=O)N1C[C@@H](C)C[C@H]1c1nc(-c2ccc(-c3cc(Cl)c(NC(=O)c4ccc(N5CCN(C(=O)[C@H]6CCCN6S(C)(=O)=O)C[C@H]5C)nc4)cc3OC(F)(F)F)cc2)c[nH]1)C(C)C [Example 1-39]	D (D represents pEC50>10 (EC50<0.1 nM))
COC(=O)N[C@H](C(=O)N1C[C@@H](C)C[C@H]1c1nc(-c2ccc(-c3cc(F)c(C(=O)Nc4ccc(N5CCN(C(=O)[C@H]6CC6(C)C)C[C@H]5C)nc4)cc3OC(F)(F)F)cc2)c[nH]1)C(C)C [Example 4-43]	C (C represents pEC50 between and 9 and about 10, (EC50 between 1 nM and 0.1 nM))
CCCC(=O)N1CCN(c2ccc(C(=O)Nc3cc(OC(F)(F)F)c(-c4ccc(-c5c[nH]c([C@@H]6C[C@H](C)CN6C(=O)[C@@H](NC(=O)OC)C(C)C)n5)cc4)cc3Cl)cn2)[C@H](C)C1 [Example 1-68]	C (C represents pEC50 between and 9 and about 10, (EC50 between 1 nM and 0.1 nM))
COC(=O)N[C@H](C(=O)N1C[C@@H](C)C[C@H]1c1nc(-c2ccc(-c3cc(Cl)c(NC(=O)c4ccc(N5CCN(C(=O)C(C)(C)CO)C(CO)C5)nc4)cc3OC(F)(F)F)cc2)c[nH]1)C(C)C (some centres unmarked) [Example 14-4]	B (B represents pEC50 between 8 and 9 (EC50 between 1 and 10 nM))
COC(=O)N[C@H](C(=O)N1C[C@@H](C)C[C@H]1c1nc(-c2ccc(-c3ccc(C(=O)Nc4ccc(N5CCN(C(=O)[C@H]6CC6(C)C)C[C@H]5C)nc4)cc3)cc2)c[nH]1)C1CCOCC1 [Example 22-2]	D (D represents pEC50>10 (EC50<0.1 nM))
COC(=O)N[C@H](C(=O)N1C[C@@H](C)C[C@H]1c1nc(-c2ccc(-c3cc(F)c(C(=O)Nc4ccc(N5CCN(C(=O)[C@H]6CC6(C)C)C[C@H]5C)nc4)cc3OC(F)(F)F)cc2)c(Cl)[nH]1)C(C)C [Example 4-44]	D (D represents pEC50>10 (EC50<0.1 nM))
CNC(=O)N1C[C@@H](C)N(c2ccc(C(=O)Nc3cc(OC(F)(F)F)c(-c4ccc(-c5c[nH]c([C@@H]6C[C@H](C)CN6C(=O)[C@@H](NC(=O)OC)C(C)(C)C)n5)cc4)cc3Cl)cn2)C[C@@H]1C [Example 7-1]	D (D represents pEC50>10 (EC50<0.1 nM))
COC(=O)N[C@H](C(=O)N1C[C@@H](C)C[C@H]1c1nc(-c2ccc(-c3cc(Cl)c(NC(=O)c4ccc(N5CCN(C(=O)C(O)C(F)(F)F)C[C@H]5C)nc4)cc3OC(F)(F)F)cc2)c[nH]1)C(C)C (some centres unmarked) [Example 1-97]	C (C represents pEC50 between and 9 and about 10, (EC50 between 1 nM and 0.1 nM))
COC(=O)N[C@H](C(=O)N1C[C@@H](N(C)C)C[C@H]1c1nc(-c2ccc(-c3cc(Cl)c(NC(=O)c4ccc(N5CCN(C(=O)[C@H]6CC6(C)C)C[C@H]5C)nc4)cc3OC(F)(F)F)cc2)c[nH]1)C(C)C [Example 2-6]	D (D represents pEC50>10 (EC50<0.1 nM))

Same assay, conditions: Hepatitis C virus, read-out: Genotype 1a, HCV genotype 1a replicon

SMILES	pEC50
COC(=O)N[C@H](C(=O)N1CC(C)(C)C[C@H]1c1nc(-c2ccc(-c3ccc(C(=O)Nc4ccc(N5CCN(C(=O)C6CC6(C)C)C[C@H]5C)nc4)cc3OC(F)(F)F)cc2)c[nH]1)C(C)C (some centres unmarked) [Example 6-8]	9.00 to 10.00
COC(=O)N[C@H](C(=O)N1[C@@H]2C[C@@H]2C[C@H]1c1nc(-c2ccc(-c3cc(Cl)c(NC(=O)c4ccc(N5CCN(C(=O)C(C)(C)C)C[C@H]5C)nc4)cc3C(F)(F)F)cc2)c[nH]1)C(C)C [Example 8-5]	9.00 to 10.00
COC(=O)N[C@H](C(=O)N1C[C@@H](C)C[C@H]1c1nc(-c2ccc(-c3cc(Cl)c(NC(=O)c4ccc(N5CCN(C(=O)C6CCO6)C[C@H]5C)nc4)cc3OC(F)(F)F)cc2)c[nH]1)C(C)C (some centres unmarked) [Example 12-49]	> 10.00
COC(=O)N[C@H](C(=O)N1C[C@@H](C)C[C@H]1c1nc(-c2ccc(-c3cc(Cl)c(NC(=O)c4ccc(N5CCN(C(=O)C6(N)CC6(C)C)C[C@H]5C)nc4)cc3OC(F)(F)F)cc2)c[nH]1)C(C)C (some centres unmarked) [Example 12-9]	> 10.00

Source: patent US9212168B2 (priority 2011, dated 2015)
